The subject of one series is Rodentia sp. Description: Analgesic activity in ip dosed formalin-induced pain rodent model. Type of series: functional.
The nature of series [1]: Therapeutic index, ratio of LD50 for toxicity in ip dosed rodent to ED50 for analgesic activity in ip dosed rodent. It counts as organism-based. To be noted: rodentia, in vivo, read-out: Ratio LD50/ED50.
A short description of series [2]: Toxicity in ip dosed rodent. Type of series: organism-based. The conditions noted are these: rodentia, in vivo.
Series [3] addresses T1, Mu-type opioid receptor (Homo sapiens, UniProt P35372). In words: Displacement of [3H]-DAMGO from human mu opioid receptor expressed in CHO-K1 cells membrane incubated for 60 mins by MicroBeta scintillation counter assay. Type of series: cell membranes.
The target in series [4] is Sigma non-opioid intracellular receptor 1 (Homo sapiens, UniProt Q99720). Description: Displacement of [3H](+)-pentazocine from human sigma 1 receptor expressed in HEK293 cells membrane incubated for 120 mins by MicroBeta scintillation counter assay. Type of series: cell membranes.
Series [5] deals with T1, Mu-type opioid receptor. In words: Binding affinity to mu opioid receptor (unknown origin) assessed as inhibition constant in presence of Levorphanol.
Series [6] is described as follows: Metabolic stability in mini-pig liver microsomes assessed as compound remaining after 1 hr. It counts as ADME, Sus scrofa domesticus, Microsome. The conditions noted are these: read-out: Stability.
In another series the test system is Mus musculus. In words: Antiallodynic activity in ip dosed MIA induced mechanical allodynia mouse model. It counts as functional.
Series [7] is described as follows: Therapeutic index, ratio of LD50 for toxicity in ig dosed Sprague-Dawley rat to ED50 for analgesic activity in ig dosed Sprague-Dawley rat. Type of series: organism-based. The conditions noted are these: in vivo, po, read-out: Ratio LD50/ED50.
A short description of series [8]: Toxicity in ig dosed Sprague-Dawley rat. Type of series: organism-based. The conditions noted are these: in vivo, po.
In a further series the test system is Rattus norvegicus. Description: Analgesic activity in ig dosed formalin-induced pain Sprague-Dawley rat model. Type of series: functional. To be noted: po.

T1 sequence (P35372 whole entry): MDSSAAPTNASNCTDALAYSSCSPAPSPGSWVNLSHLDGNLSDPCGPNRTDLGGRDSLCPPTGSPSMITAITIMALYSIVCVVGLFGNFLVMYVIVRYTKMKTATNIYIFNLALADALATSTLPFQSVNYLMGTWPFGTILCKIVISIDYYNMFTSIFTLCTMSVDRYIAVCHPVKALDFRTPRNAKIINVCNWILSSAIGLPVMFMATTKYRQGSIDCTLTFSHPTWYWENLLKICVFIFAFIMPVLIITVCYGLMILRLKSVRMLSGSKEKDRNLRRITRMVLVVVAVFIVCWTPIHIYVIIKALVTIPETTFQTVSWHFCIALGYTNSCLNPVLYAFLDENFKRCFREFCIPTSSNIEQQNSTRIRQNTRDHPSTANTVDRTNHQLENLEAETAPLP
Sigma non-opioid intracellular receptor 1, sequence (Q99720 whole entry): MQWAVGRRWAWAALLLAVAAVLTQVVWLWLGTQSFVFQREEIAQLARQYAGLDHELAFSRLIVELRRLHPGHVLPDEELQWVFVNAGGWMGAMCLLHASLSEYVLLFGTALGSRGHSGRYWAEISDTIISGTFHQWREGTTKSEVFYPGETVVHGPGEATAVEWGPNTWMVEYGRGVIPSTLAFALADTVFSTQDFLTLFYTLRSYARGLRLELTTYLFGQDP

Consider `Cc1cc(OCCN2CCOCC2)nn1-c1ccc2ccccc2c1`, for which it took a dose of 33.2 mg/kg to reach the 50% effect level with Rodentia sp. (ED50). In addition, in series [1], the selectivity ratio is 12. Also, the median lethal dose (LD50) in [2] stood at 397 mg/kg. As for `O=C(c1cccc(C(F)(F)F)n1)C1(N2CCN(Cc3ccccc3)CC2)CCOC2(CCCC2)C1` (stereo unspecified), the Ki (at Mu-type opioid receptor [3]; in [4]) was less than 100 nM in each case. `CCN1CC2(CCN(CCc3ccccc3)CC2)c2ccccc2C1=O`: the Ki (on Mu-type opioid receptor [3]; in series [4]) was 100 nM throughout.

Regarding `C[C@H]1[C@H]2Cc3ccc(O)cc3[C@@]1(C)CCN2CCc1ccccc1`, at Mu-type opioid receptor [5], the Ki was 0.2 nM. For the compound `Oc1cccc(C2CCN(Cc3cn(-c4ccccc4)nn3)CC2)c1`, the inhibitory constant (Ki) (at Mu-type opioid receptor [3]; in series [4]) was less than 100 nM each time. In the case of `O=C(c1ccccc1)C1(N2CCN(Cc3ccccc3)CC2)CCOC2(CCCC2)C1` (stereo unspecified), the Ki (at Mu-type opioid receptor [3]; in series [4]) was less than 100 nM each time. As to `CN1CC2(CCN(CCc3ccccc3)CC2)c2ccccc2C1=O`, the Ki (on Mu-type opioid receptor [3]; in series [4]) was 100 nM throughout. For the compound `C[C@@H]1[C@@H]2Cc3ccc(O)cc3[C@]1(C)CCN2CCc1ccccc1`, at Mu-type opioid receptor [5], the Ki turned out to be 55 nM. Regarding `CC(C)S(=O)(=O)Nc1cccc(C2CCN(Cc3cn(-c4ccccc4)nn3)CC2)c1`, the Ki (on Mu-type opioid receptor [3]; in series [4]) was less than 100 nM in each case. As to `[2H]C([2H])([2H])C([2H])([2H])N1CC2(CCN(C([2H])([2H])C([2H])([2H])c3cc(F)ccc3F)CC2)O[C@H](C)C1=O`, the remaining at 1 h in [6] turned out to be 64%.

As to `CCOCCN1CCCCC(CC)(c2cccc(O)c2)C1` (stereo unspecified), the Ki (on Mu-type opioid receptor [3]; in series [4]) was less than 100 nM throughout.

For the compound `CC(C)S(=O)(=O)Nc1cccc(N2CCN(Cc3cn(-c4ccccc4)nn3)CC2)c1`, the Ki (at Mu-type opioid receptor [3]; in series [4]) was less than 100 nM each time. For the compound `CN(CCOC(c1cccs1)c1ccnn1C)Cc1ccccc1` (stereo unspecified), the Ki (on Mu-type opioid receptor [3]; in [4]) was less than 100 nM each time. For `CCC(=O)N(CCN1CCC(N(C)Cc2ccccc2)C1)c1ccccc1` (stereo unspecified), the inhibitory constant (Ki) in series [4] was found to be 100 nM. With `CCC(=O)N(CC1(N2CCN(CC(C)C)CC2)CCOCC1)c1cccc(C(F)(F)F)n1`, in the series with Mus musculus, the median effective dose (ED50) is 31.9 mg/kg. As to `CN(CCOC(c1cccs1)c1ccnn1C)CCc1ccccc1` (stereo unspecified), the Ki (at Mu-type opioid receptor [3]; in series [4]) was less than 100 nM each time. Take `Clc1ccc(-c2noc(CCCCN3CCCCC3)n2)c(Cl)c1`: the selectivity ratio in series [7] stood at 18.2. The compound also gave a median lethal dose (LD50) in [8] of 957 mg/kg. This compound also returned an ED50 in the series with Rattus norvegicus of 52.5 mg/kg. On to `CN1CCc2ccccc2C12CCN(CCc1ccccc1)CC2`, for which the inhibition constant Ki (on Mu-type opioid receptor [3]; in series [4]) was less than 100 nM throughout. In the case of `CC(=O)Oc1cccc(C2CCN(Cc3cn(-c4ccccc4)nn3)CC2)c1`, the Ki (on Mu-type opioid receptor [3]; in series [4]) was less than 100 nM in each case.

`COc1ccc2c(c1)CCN(C)C21CCN(CCc2ccccc2)CC1`: the Ki (on Mu-type opioid receptor [3]; in series [4]) was less than 100 nM throughout.

Regarding `O=C(c1ccccn1)C1(N2CCN(Cc3ccccc3)CC2)CCOC2(CCCC2)C1` (stereo unspecified), the Ki (at Mu-type opioid receptor [3]; in [4]) was less than 100 nM each time.

For the compound `CC(C)S(=O)(=O)Nc1cccc(N2CCN(Cc3cn(-c4ccccc4F)nn3)CC2)c1`, the Ki (at Mu-type opioid receptor [3]; in series [4]) was less than 100 nM throughout.

The values above are taken from ChEMBL document CHEMBL5230145, “Bifunctional μ opioid and σ1 receptor ligands as novel analgesics with reduced side effects” (Eur J Med Chem, 2021).
